Results as given in EP3884948A1, “CATHEPSIN INHIBITORS AND USES THEREOF” (Ecole Polytechnique Fédérale de Lausanne (EPFL), priority 2020, dated 2021).

Legend:
[1] = tested on: CTSS-His-WT and CTSS-His-Y132D; assay: Mass spectrometry of peptide cleavage by purified CTSS; format: biochemical, human; settings: after 15 minutes of incubation with purified CTSS-His-WT and CTSS-His-Y132D
Procedure: (§1) For mass spectrometry experiments, CTSS-His WT and Y132D were activated by incubation at 10 µg/mL in Assay buffer (50 mM NaOAc, 5 mM DTT, 250 mM NaCl, pH 4.5) at 37°C for 90 minutes. 2.5 µg of activated CTSS-His WT and Y132D were then co-incubated with 5 ug of peptide in Assay buffer (final volume: 300 µl) at 37°C for 15 or 30 minutes. The reaction was stopped by addition of 50 µM E64 (Selleckchem, cat #S7379) following the co-incubation. Control reactions were prepared by incubating 5 µg of peptide in 300 µl of Assay buffer at 37°C for 15 or 30 minutes. Control and digested peptides were acidified, desalted on C18 StageTips (Rappsilber et al., 2007) and dried by vacuum centrifugation. Samples were resuspended in LC-MS solvent A (2% Acetonitrile, 0.1% TFA) and equivalent sample amounts (3 to 10 ng) injections were performed. Nano-flow separations were achieved on a Dionex Ultimate 3000 RSLC nano UPLC system (Thermo Fischer Scientific) on-line connected with a Q-Exactive Mass-Spectrometer (Thermo Fischer Scientific). Samples were first trapped on a capillary C18 pre-column (Acclaim PepMap™ 100, 75 µm x 2cm) and then separated on a C18 home-made capillary column (ReproSil-Pur C18 AQ 1.9 µm; 50 cm x 75 µm ID) at 250 nl/min over a biphasic 60 min gradient ranging from 99% of solvent A (2% Acetonitrile and 0.1% Formic acid) to 90% of solvent B (90% Acetonitrile and 0.1% Formic acid). The mass spectrometer was operated in Data Dependent acquisition mode using a scan range of 200 to 1500 m/z. MS resolution was set to 70K and MS2 resolution to 17,5K. An isolation window of 2 m/z was used when selecting ions to fragment by HCD and the Normalized Collision Energy (NCE) was set to 27. Data were inspected and dedicated traces extracted with Xcalibur Qual Browser software (Thermo Fischer Scientific). The peptides used were the following: CD74 ([…]) (SEQ ID NO: 16), HSPA1/8 ([…]) (SEQ ID NO: 17), OVA ([…]) (SEQ ID NO: 18), HA ([…]) (SEQ ID NO: 19).

[2] = biological target: T1, CTSS-His-WT and CTSS-His-Y132D (Homo sapiens, UniProt P25774); assay: as above; format: biochemical; settings: incubated with purified CTSS-His-WT for 30 minutes
T1 construct: made in house; host or cells: HEK293
Procedure: as §1

Row | Sequence | peptides cleaved [1] | cleavage by CTSS [2]
1 | EEIERMVQEAEKYKAEDEVQ [SEQ ID NO: 17] | 35-40% | –
2 | IKVYLPRMKMEEKYNLTSVL [SEQ ID NO: 18] | – | can cleave
3 | NVKNLYEKVKSQLKNNAKEI [SEQ ID NO: 19] | – | can cleave
4 | QLENLRMKLPKPPKPVSKMR [SEQ ID NO: 16] | completely cleaved | –
